For data set [1], the system named is caffeine-induced wakefulness mice. Briefly: Caffeine-induced wakefulness mouse model: sleep latency, sleep duration, number falling asleep. As to conditions: caffeine-induced wake mouse; caffeine alone or + test article (20 mg theanine/kg). It is filed as in vivo. How it is done: Animals and Experimental design: Seven male BALB/c mice per treatment arm (age: 8 weeks, weight: […]) were housed in a controlled environment with a 12:12-h light-dark cycle at 22° C. and were provided with mice chow and water ad libitum. All experiments were conducted under the National Institutes of Health's Guidelines for the Care and Use of Laboratory Animals and approved by the Ethics Committee of the Medipol University.
Drugs and materials: Study product was provided by Nutrition21 LLC (Mg-Theanate #1=lot AA209-122-20, Mg-Theanate #2=lot BLS-DN 13). […] The concentration of each drug solution was adjusted so that the volume injected was constant at 1.0 ml/kg BW. All drug solutions were prepared fresh daily, and were administered intraperitoneally (i.p.). […]

Data set [2] relates to brain serotonin, dopamine and melatonin. Kind of data set: Brain neurotransmitter levels by ELISA in caffeine-induced wakefulness mice. The data set is classed as in vivo. To be noted: for Dopamine / Melatonin / Serotonin: brain, caffeine followed by saline (C) or test article (20 mg theanine/kg), ELISA, means and standard deviations. Background: An ELISA detects its analyte on a solid surface through an enzyme-linked reagent.

The next data set has as its system MDA, SOD, CAT, GSHPx. Briefly: Brain antioxidant status in caffeine-induced wakefulness mice. The data set is classed as in vivo. To be noted: for CAT / GSHPx / SOD / MDA: caffeine followed by saline (C) or test article (20 mg theanine/kg), means and standard deviations. As to the method: Animals were anesthetized with urethane ([…], i.p., Sigma U2500). Body temperature was maintained between 36.5 and 37° C. with homeothermic blanket. Mice were stabilized under a stereotaxic frame (World Precision Instruments, Berlin; Germany) and an incision was made on the skin along the anterior/posterior line of the skull. The left […] was removed gently with a dental drill (Marothon-3; Korea). Two Ag-AgCl sphere electrodes were placed over the left hemisphere with the reference electrode attached on the pinna. […] Brains were rapidly removed, frozen on dry ice and stored at -80° C. until analyses could be performed. Biochemical and Oxidative Stress Markers-Serum melatonin, serotonin, and dopamine were measured using ELISA kits. Brain levels of malondialdehyde (MDA) were measured by HPLC. Brain activities of superoxide dismutase (SOD), catalase (CAT) and glutathione peroxidase (GSHPx) were measured using ELISA kits for each analyte.

Another data set relates to wakefulness. To be noted: 7.5 mg/kg i.p.; Kwon et al., 2006; cited from earlier work.
Data set [3] has as its system brain waves (spike amplitude / spike frequency). Kind of data set: Electrocorticography (ECoG) of brain electrical activity in caffeine-induced wakefulness mice. The data set is classed as in vivo. To be noted: caffeine-induced wake mouse; electrical activity over 120 minutes; result in words; listed as Theanine. How it is done:
Animals were anesthetized with urethane ([…], i.p., Sigma U2500). Body temperature was maintained between 36.5 and 37° C. with homeothermic blanket. Mice were stabilized under a stereotaxic frame (World Precision Instruments, Berlin; Germany) and an incision was made on the skin along the anterior/posterior line of the skull. The left […] was removed gently with a dental drill (Marothon-3; Korea). Two Ag—AgCl sphere electrodes were placed over the left hemisphere with the reference electrode attached on the pinna.
Brains were rapidly removed, frozen on dry ice and stored at −80° C. until analyses could be performed.

The test system of data set [4] is pentobarbital-induced sleep. Briefly: Pentobarbital-induced sleep test mouse model. To be noted: for Duration of sleep / Sleep latency period: pentobarbital 42 mg/kg, test article 20 mg theanine/kg per os 45 min before, result in words. It is filed as in vivo, mice. How it is done:
Subsequently, pentobarbital was administered intraperitoneally to induce a hypnotic state that promoted sleep. The effects on sleep of the test agents were monitored.
Pentobarbital-induced sleep was performed according to published methods with slight modifications. Mice were fasted for 24 h prior to the experiment. Each test article was dissolved or suspended in physiological saline and then was administered per os. The groups were administered doses of 20 mg/kg theanine, Mg-theanate #1 (20 mg theanine/kg), and Mg-theanate #2 (20 mg theanine/kg), respectively. Forty-five minutes later, a hypnotic dose of pentobarbital (42 mg/kg) was injected into the left side of the abdomen. After injection, the mice were placed in individual cages and subjected to measurements of sleep latency and duration. Sleep latency was defined as the period between pentobarbital injection and the loss of righting reflex (sleep onset), and sleep duration denoted the time elapsed between loss of the righting reflex and recovery.
Statistical Analyses—Data are shown as mean±SEM. Sample size was calculated based on a power of 85% and a p-value of 0.05. Given that assumption, a sample size of seven per treatment was calculated. The data were analyzed using the GLM procedure of SAS (SAS Institute: SAS User's Guide: Statistics). The treatments were compared using ANOVA and Student's unpaired t-test; P<0.05 was considered statistically significant.

For data set [5] the following is noted: Nathan [17]; cited from earlier work.
The subject of another data set is sleep cycle. To be noted: Jang et al. [11], cited from earlier work.
The test system of data set [6] is stimulatory action of caffeine. As to conditions: rats, EEG, Kakuda et al. [13]; cited from earlier work.
Data set [7] concerns Bax, Bcl-2, Caspase-3, eNOS, iNOS. Briefly: Western blot of brain cell survival indicators in caffeine-induced wakefulness mice. To be noted: caffeine-induced wake mouse; result in words; listed as Theanine.
For data set [8] the following is noted: Ates et al. [2]; comparison in words; cited from earlier work.
For data set [9] the following is noted: 500 mg magnesium daily, 8 weeks, cited from earlier work.
The mark [10] stands for this setting: caffeine-induced wake mouse, result in words.
Setting [11] is: caffeine-induced wake mouse model, 20 mg/kg.

With `Cn1c(=O)c2c(ncn2C)n(C)c1=O` [C, Caffeine, reference compound], in data set [1], the “Number of animals falling asleep (share of the group that fell asleep)” value is “Caffeine: only 50% of the group fell asleep” and the Sleep latency period entry is recorded as “Caffeine: The sleep latency period doubled to about 2 minutes in caffeine-treated animals”. Besides, in data set [2], the Dopamine is 584.86 + 72.47d ng/g, the Melatonin is recorded as 0.59 + 0.05a pg/g and the Serotonin is 571.00 + 42.14d ng/g. The “Neurotransmitter levels (brain serotonin, dopamine, and melatonin)” value in data set [2] (setting [10]) is recorded as “Caffeine: Levels of all three neurotransmitters were significantly reduced, reflecting the”. In the data set on MDA, SOD, CAT, GSHPx, the CAT is given as 24.40 + 1.62a IU/mg protein, the GSHPx was 12.07 + 2.89b IU/mg protein and the SOD is recorded as 89.00 + 5.16a IU/mg protein. The “Level of MDA (indicator of oxidative stress)” value with MDA, SOD, CAT, GSHPx (setting [10]) is listed as “Caffeine: The level of MDA (an indicator of oxidative stress) was significantly increased,”. Moreover, the “Time for which wakefulness is maintained” value in the data set on wakefulness is listed as “at least 2 h”.
For `CCNC(=O)CCC(N)C(=O)O` [CMgT1, magnesium di-L-theanate], in data set [2], the Dopamine is 832.71 + 74.50bc ng/g, the Melatonin was 0.80 + 0.03b pg/g and the Serotonin is 762.29 + 25.34b ng/g. For the same molecule, in the data set on MDA, SOD, CAT, GSHPx, the CAT is given as 36.47 + 1.27b IU/mg protein, the MDA is recorded as 2.24 + 0.14c nmol/g and the SOD was 131.14 + 9.86b IU/mg protein.
Turning to `CCNC(=O)CCC(N)C(=O)O` [CMgT2, magnesium di-L-theanate], in [2], the Dopamine is 895.57 + 61.93ab ng/g, the Melatonin is 0.85 + 0.04b pg/g and the Serotonin was 751.43 + 30.34b ng/g. Also, in the data set with MDA, SOD, CAT, GSHPx, the CAT was 35.96 + 2.52b IU/mg protein, the GSHPx is reported as 19.11 + 2.39ab IU/mg protein, the MDA is listed as 2.24 + 0.09c nmol/g and the SOD was 137.29 + 5.99b IU/mg protein.
On to `CCNC(=O)CCC(N)C(=O)O` (stereo not shown) [CT, 2-amino-4-(ethylcarbamoyl)-butyric acid, reference compound], for which, in data set [1], the “Number of animals falling asleep (share of the group that fell asleep)” value is reported as “+ Theanine: 62.5% of the group fell asleep” and the Sleep latency period entry is recorded as “+ Theanine: The sleep latency period increased from about 1 to about 1.5 minute, a minutes”. Moreover, in data set [3], the “Amplitude of brain waves” value was “+ Theanine: Within about 30 minutes, the amplitude of brain waves increased significantly” and the “Spike frequency of electrical activity in the brain” value is given as “significantly reduced, as compared to caffeine-treated animals”. In [2], the Dopamine was 779.00 + 77.73c ng/g, the Melatonin is on record as 0.69 + 0.08c pg/g and the Serotonin is listed as 655.43 + 35.46c ng/g. Also, in the data set with MDA, SOD, CAT, GSHPx, the CAT was 29.51 + 2.06c IU/mg protein, the GSHPx is given as 15.56 + 7.94ab IU/mg protein, the MDA is reported as 2.46 + 0.17b nmol/g and the SOD is listed as 117.14 + 13.89c IU/mg protein. Further, in the data set on MDA, SOD, CAT, GSHPx (caffeine-induced wake mouse, result in words, listed as Theanine), the “Levels of protective enzymes (SOD, CAT, GSHPx)” value was “decreased, but the changes were not as great as those shown by caffeine treatment”. Also, the “Animals that failed to sleep during the 10-minute period following pentobarbital administration” value in data set [4] (20 mg/kg per os) is “About 62%”. Further, in data set [4], the Duration of sleep result is given as “significantly increased” and the Sleep latency period entry is “significantly reduced”. Also, in [4] (listed as L-theanine), the Duration of sleep entry is “significantly increased” and the Sleep latency period result is given as “significantly decreased”. Moreover, the “Time to cross the blood-brain barrier after oral administration” value in [5] was not above 30 min. Moreover, in the data set with sleep cycle (setting [11]), the “REM time during the sleep cycle” value was “increases”, the Sleep latency entry is given as “significantly decrease” and the Sleep time result was “increase”. In addition, in the data set with sleep cycle (chronic administration), the “NREM time, chronic administration” value is “significant increase”. The “NREM time, single doses” value in the data set with sleep cycle (single doses) is listed as “little effect”. Besides, in [6], the “Intravenous dose that could inhibit the stimulatory action of caffeine” value is on record as “higher than 0.78 mg/kg”. Also, the “Brain cell survival (Bax, Bcl-2, Caspase-3, eNOS, and iNOS, indicators of cell damage)” value in [7] is on record as “+ Theanine: Administration of theanine caused trends toward normalization of these”.
On to `O=C([O-])CC(O)C(=O)[O-].[Mg+2]` (stereo not shown) [magnesium malate], for which the “Absorption (and bioavailability) of magnesium” value (from here on “Absorption”) in data set [8] is “more poorly absorbed than certain magnesium complexes with amino acids”.
For the molecule `[Mg+2]` [magnesium], the “Concentration of serum renin vs placebo” value in data set [9] (P<0.001) was “statistically significant increases”. Moreover, the “Sleep time vs placebo” value in data set [9] (P=0.002) is on record as “statistically significant increases”. For the same molecule, in data set [9] (P=0.007), the “Concentration of melatonin vs placebo” value was “statistically significant increases”. The “Sleep efficiency vs placebo” value in [9] (P=0.03) is “statistically significant increases”. The “Early morning wakening time” value in data set [9] is given as “shortened”. Moreover, the “Insomnia Severity Index scores” value in data set [9] (subjective measure) is “improved”.
With magnesium acetyl taurate, the “Absorption” value in data set [8] is “significantly better absorption and bioavailability than magnesium glycinate”.
With magnesium citrate, in data set [8], the “Absorption” value is listed as “more poorly absorbed than certain magnesium complexes with amino acids”.

These data come from patent US12329774B2, “Method and composition for enhancing the quality and benefits of sleep” (priority 2020, dated 2025).
